Measured values as given in patent publication US20240041899A1, “SOLID PREPARATION” (ASKA Pharmaceutical Co., Ltd., priority 2020, published 2024).

Tests used:
[1] = tested on: lower urinary tract obstruction model of rats (male); assay: Test Example 2: urination function in lower urinary tract obstruction model of male rats; assay type: in vivo; conditions: oral once a day 14 days, 10 mg/kg, in comparison with Group C (dutasteride 0.5 mg/kg)
Text: A lower urinary tract obstruction model of rats was used as a test system. A test substance was orally administered to the lower urinary tract obstruction model repeatedly over 14 days to examine the action on the urination function in the lower urinary tract obstruction model. The lower urinary tract obstruction model is not a benign prostatic hyperplasia model with enlarged prostate.
More specifically, the rats (male, Crl:CD(SD), 8-week-old; Charles River Laboratories Japan, Inc.) were operated to form lower urinary tract obstruction and repeatedly received oral administration of the test substance at a frequency of once a day over 14 days. After the completion of the administration, each rat was subjected to bladder catheterization under anesthesia and cystometry under no anesthesia and was evaluated for the residual urine volume and the urination efficiency.
The test substances and the dosage in the test system (male rats with lower urinary tract obstruction) are as follows. • Solvent group (control group): 0.5 v/v % Polysorbate 80 solution, 10 mL/kg (n=8) • Group A: Compound A, 10 mg/kg (n=12) • Group C: Compound C (dutasteride), 0.5 mg/kg (n=11)

[2] = tested on: rats having the urination disorder associated with diabetes; assay: Test Example 6: urination disorder model associated with streptozocin-induced diabetes, compound A versus compound C; assay type: in vivo; conditions: STZ diabetes model
Method: As described below, a model of a urination disorder associated with streptozocin-induced diabetes was prepared as a urination disorder model in accordance with Test Example 4 to evaluate the effects of the compound A and the compound C on a urination disorder. This model has no benign prostatic hyperplasia and is a model of a urination disorder associated with neuropathy and smooth muscle contraction disorder.
The body weights of Rats (male, Crl:CD(SD), 5-week-old; Charles River Laboratories Japan, Inc.) were measured. On the basis of the body weight, the rats were grouped or divided into two (2) groups. The day after the rats were grouped, a first group received intraperitoneal administration of a citrate buffer (pH 4.5) (10 mL/kg) having a concentration of 0.1 mmol/L, and a second group received intraperitoneal administration of streptozocin (STZ; Sigma-Aldrich) (50 mg/kg). Streptozocin (STZ) was administered in the form of a solution of streptozocin having a concentration of 5 mg/mL in the citrate buffer.
About one (1) week after streptozocin (STZ) was administered, the body weight and the fasting blood glucose were measured. In the streptozocin (STZ) administration group (the second group), individuals having a fasting blood glucose level of not less than 300 mg/dL were used as animals with induced diabetes. These animals with induced diabetes are a model having no abnormality of the prostate (having no benign prostatic hyperplasia). On the basis of the body weight and the fasting blood glucose level, the animals (models) with induced diabetes were grouped or divided into three (3) groups by randomized, multivariable block allocation.
To the three model groups with induced diabetes, a 0.5 v/v % Polysorbate 80 solution (0.5% P) (10 mL/kg), the compound A (3 mg/kg), and the compound C (dutasteride) (0.3 mg/kg) were orally administered, respectively, wherein the administration schedule in all groups was a frequency of once a day, only on weekdays, over four (4) weeks. Moreover, to the above-mentioned first group, a 0.5 v/v % Polysorbate 80 solution (0.5% P) (10 mL/kg) was orally administered in the same administration schedule (normal group). On the last day of administration, a cannula was inserted into and secured to the dome of the bladder under isoflurane anesthesia, and cystometry (Cystometogram, CMG) was conducted in the order of under awake condition and under urethane anesthesia to measure the intravesical pressure, the voided volume, and the residual urine volume. After the completion of the measurement, the blood was collected under deep isoflurane anesthesia, and then the prostate (ventral prostate, dorsolateral prostate) was extracted and each was weighed. Moreover, the blood glucose level in the collected blood was measured.
Normal group: citrate buffer 10 mL/kg (intraperitoneal administration), 0.5% P 10 mL/kg (oral administration) (n=10) • Solvent group (control group): STZ 50 mg/kg (intraperitoneal administration), 0.5% P 10 mL/kg (oral administration) (n=10) • Group A3: STZ 50 mg/kg (intraperitoneal administration), Compound A 3 mg/kg (oral administration) (n=10) • Group C0.3: STZ 50 mg/kg (intraperitoneal administration), Compound C (dutasteride) 0.3 mg/kg (oral administration) (n=10)
Urination parameter: In the same manner as in Test Example 4, the residual urine volume (mL) and the urination efficiency (%) were determined as urination parameters in each urination, and the average value of two measurements was taken as a measured value of each individual.
Prostate weight: In the same manner as in Test Example 4, the weight of the prostate (ventral prostate, dorsolateral prostate, and whole) was converted to a tissue weight per 100 g of the body weight. For Group A3, which received the compound A, and Group C0.3, which received the compound C, the inhibition rate of the weight of the prostate relative to the weight of the prostate in the solvent group was calculated (with one decimal place). […]

[3] = Compound A 3 mg/kg, in comparison with the solvent group (p<0.05)
[4] = Compound A oral 3 mg/kg, 4 weeks
[5] = Compound A oral 3 mg/kg, relative to solvent group

CC(=O)O[C@]1(C(C)=O)C[C@@H](O)[C@H]2[C@@H]3C=C(Cl)C4=CC(=O)OC[C@]4(C)[C@H]3CC[C@@]21C [Compound A, 17α-acetoxy-6-chloro-15β-hydroxy-2-oxa-4,6-pregnadiene-3,20-dione]
urination function (the residual urine volume, the urination efficiency) [1]: strong improvement action | therapeutic effect on diabetes ([2]; Compound A 3 mg/kg): no therapeutic effect | weights of the ventral prostate, the dorsolateral prostate, and the whole prostate ([2]; Compound A 3 mg/kg, compared with the solvent group (P<0.05)): significant decrease | residual urine volume, cystometry (CMG) under awake condition [2, 3]: significantly decreased | urination efficiency, cystometry (CMG) under awake condition [2, 3]: significantly improved | bladder contraction force on urination by nomogram analysis ([2]; Compound A 3 mg/kg, in comparison with the solvent group and Group C0.3): strong bladder contraction force | effect on the blood glucose level ([2]; Compound A 3 mg/kg, vs solvent group): did not statistically affect | Blood glucose level [2, 4]: 972.4 ± 312.3 mg/dL | Prostate weight, dorsolateral prostate [2, 4]: 38.8 ± 4.2 mg/100 g body weight | Prostate weight, ventral prostate [2, 4]: 61.2 ± 12.4 mg/100 g body weight | Prostate weight, whole [2, 4]: 99.9 ± 15.5 mg/100 g body weight | Dorsolateral prostate atrophy rate [2, 5]: (40.2%) | Ventral prostate atrophy rate [2, 5]: (40.0%) | Whole prostate atrophy rate [2, 5]: (40.1%)
